Measured values taken from patent US20240174680A1, “CDK2 INHIBITORS AND METHODS OF USING THE SAME” (Cedilla Therapeutics, Inc., priority 2021, published 2024).

Biological target: CDK2/Cyclin E1 (Homo sapiens, UniProt P24941)
Assay: CDK2/Cyclin E1 Caliper LabChip EZ Reader mobility shift assay
Type: biochemical
Set-up: purchased Eurofins 14-475
Conditions: read-out: Caliper Assay (CDK2/CCNE1): IC50
Outline: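 Substrate-to-product conversion of fluorescent peptide (1.5 μM final) read by capillary electrophoresis after 100 min reaction, EDTA-quenched. Enzyme (2.5 nM final) and ATP (100 μM final) were preincubated 30 min with inhibitor dilutions first. % activity vs concentration fitted four-parameter for IC50.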

| Compound | IC50 [nM] |
| --- | --- |
| Cc1ccc(CNC(=O)[C@@H]2CN(C(=O)c3cnn(Cc4ccccc4)c3)CC23CN(C(=O)C(C)(C)C2CC2)C3)nn1 [I-387, (S)-6-(1-benzyl-1H-pyrazole-4-carbonyl)-2-(2-cyclopropyl-2-methylpropanoyl)-N-((6-methylpyridazin-3-yl)methyl)-2,6-diazaspiro[3.4]octane-8-carboxamide] | > 10000 |
| CC1(C)C[C@@H]1C(=O)N1CC2(CN(C(=O)c3cnn(Cc4ccccc4)c3)C[C@H]2C(=O)NC[C@H]2CC[C@@H](C)CC2)C1 [I-388] | > 10000 |
| COC[C@H]1CCCN(C(=O)[C@@H](NC(=O)[C@@H]2CN(C(=O)c3cncs3)CC23CN(C(=O)C(C)(C)C2CC2)C3)[C@@H](C)OCC2CCCCC2)C1 [I-389] | ≤ 10 |
| COC[C@H]1CCCN(C(=O)[C@@H](NC(=O)[C@@H]2CN(C(=O)c3cncs3)CC23CN(C(=O)[C@H]2CC2(C)C)C3)[C@@H](C)OCC2CCC3(CCC3)CC2)C1 [I-390] | ≤ 10 |
| CNC(=O)C(NC(=O)[C@@H]1CN(C(=O)c2cnn(Cc3ccccc3)c2)CC12CN(C(=O)[C@H]1CC1(C)C)C2)c1cccc(C2CCCCC2)n1 (stereo partly drawn) [I-391] | ≤ 10 |
| CC1(C)C[C@@H]1C(=O)N1CC2(CN(C(=O)c3cnn(Cc4ccccc4)c3)C[C@H]2C(=O)NCc2ccc(C(F)(F)F)nn2)C1 [I-392] | 1000 to 10000 |
| CNC(=O)[C@@H](NC(=O)[C@@H]1CN(C(=O)c2cnn(Cc3ccccc3)c2)CC12CN(C(=O)[C@H]1CC1(C)C)C2)C(C)(C)OCc1ccccc1 [I-393] | 10 to 100 |
| C[C@@H](OCC1CCC(F)(F)CC1)[C@H](NC(=O)C1CN(C(=O)c2cncs2)CC12CN(C(=O)[C@H]1CC1(C)C)C2)C(=O)N1CCC(OC(F)(F)F)CC1 (stereo partly drawn) [I-394] | ≤ 10 |
| C[C@@H](OC(C)(C)C1CCCCC1)[C@H](NC(=O)[C@@H]1CN(C(=O)c2cncs2)CC12CN(C(=O)[C@H]1CC1(C)C)C2)C(=O)N1CCCCC1 [I-395] | 10 to 100 |
| CNC(=O)[C@@H](NC(=O)[C@@H]1CN(C(=O)c2cnn(Cc3ccccc3)c2)CC12CN(C(=O)[C@H]1CC1(C)C)C2)C1(OCC2CCCCC2)CC1 [I-396] | ≤ 10 |
| C[C@@H](OCC1CCC(F)(F)CC1)[C@H](NC(=O)[C@@H]1CN(C(=O)c2cncs2)CC12CN(C(=O)[C@H]1CC1(C)C)C2)C(=O)N1CCC(CO)CC1 [I-397] | ≤ 10 |
| C[C@@H](OCC1CCC(F)(F)CC1)[C@H](NC(=O)[C@@H]1CN(C(=O)c2cncs2)CC12CN(C(=O)[C@H]1CC1(C)C)C2)C(=O)N1CCC(C(F)(F)F)CC1 [I-398] | ≤ 10 |
| COC[C@H]1CCCN(C(=O)[C@@H](NC(=O)[C@@H]2CN(C(=O)c3cncs3)CC23CN(C(=O)C(C)(C)C2CC2)C3)[C@@H](C)OC(C)C2CCC(F)(F)CC2)C1 (stereo partly drawn) [I-399] | ≤ 10 |
| CC1(C)C[C@@H]1C(=O)N1CC2(CN(C(=O)c3cnn(Cc4ccccc4)c3)C[C@H]2C(=O)NCc2ccc(O)nn2)C1 [I-400] | > 10000 |
| CNC(=O)[C@@H](NC(=O)[C@@H]1CN(C(=O)c2cncs2)CC12CN(C(=O)[C@H]1CC1(C)C)C2)C1(OCC2CCCCC2)CC1 [I-401] | 10 to 100 |
| COC[C@H]1CCCN(C(=O)[C@@H](NC(=O)[C@@H]2CN(C(=O)c3cncs3)CC23CN(C(=O)[C@H]2CC2(C)C)C3)[C@@H](C)OC[C@H]2CC[C@H](OC)CC2)C1 [I-402] | 10 to 100 |
| CNC(=O)[C@@H](NC(=O)[C@@H]1CN(C(=O)c2cnn(Cc3ccccc3)c2)CC12CN(C(=O)[C@H]1CC1(C)C)C2)[C@@H](C)OC[C@H]1CC[C@H](OC)CC1 [I-403] | 10 to 100 |
| C[C@@H](OCc1ccc(Cl)cc1)[C@@H](CO)NC(=O)[C@@H]1CN(C(=O)c2cncs2)CC12CN(C(=O)[C@H]1CC1(C)C)C2 [I-404] | 10 to 100 |
| Cc1ccc(CNC(=O)[C@@H]2CN(C(=O)c3cnc(Cc4ccccc4)s3)CC23CN(C(=O)[C@H]2CC2(C)C)C3)nn1 [I-405] | > 10000 |
| C[C@@H](OCC1CCCCC1)[C@H](NC(=O)[C@@H]1CN(C(=O)c2cncs2)CC12CN(C(=O)[C@H]1CC1(C)C)C2)C(=O)N1CCC(c2cnc[nH]2)CC1 [I-406] | ≤ 10 |
| COC[C@H]1CCCN(C(=O)[C@@H](NC(=O)[C@@H]2CN(C(=O)c3cncs3)CC23CN(C(=O)[C@H]2CC2(C)C)C3)[C@@H](C)OC[C@H]2CC[C@@H](OC)CC2)C1 [I-408] | 10 to 100 |
| C[C@@H](OCc1ccccc1)[C@H](NC(=O)[C@@H]1CN(C(=O)c2cnn(Cc3ccccc3)c2)CC12CN(C(=O)[C@H]1CC1(C)C)C2)C(=O)N(C)C [I-409] | ≤ 10 |
| CNC(=O)C(NC(=O)[C@@H]1CN(C(=O)c2cncs2)CC12CN(C(=O)C(C)(C)C1CC1)C2)c1cccc(C2CCCCC2)n1 (stereo partly drawn) [I-410, (8S)—N-(1-(6-cyclohexylpyridin-2-yl)-2-(methylamino)-2-oxoethyl)-2-(2-cyclopropyl-2-methylpropanoyl)-6-(thiazole-5-carbonyl)-2,6-diazaspiro[3.4]octane-8-carboxamide] | 10 to 100 |
| CNC(=O)C(NC(=O)[C@@H]1CN(C(=O)c2cncs2)CC12CN(C(=O)[C@H]1CC1(C)C)C2)c1cccc(C2CCC(F)(F)CC2)n1 (stereo partly drawn) [I-411] | 10 to 100 |
| C[C@@H](OCC1CC(F)(F)C1)[C@@H](CO)NC(=O)[C@@H]1CN(C(=O)c2cncs2)CC12CN(C(=O)[C@H]1CC1(C)C)C2 [I-412] | 10 to 100 |
| CNC(=O)[C@@H](NC(=O)[C@@H]1CN(C(=O)c2cnn(Cc3ccccc3)c2)CC12CN(C(=O)[C@H]1CC1(C)C)C2)[C@@H](C)OC[C@H]1CC[C@H](O)CC1 [I-413] | 100 to 1000 |

| Compound | IC50 [nM] |
| --- | --- |
| CC1(C)C[C@@H]1C(=O)N1CC2(CN(C(=O)c3cncs3)C[C@H]2C(=O)NCc2cccc(C3CCCCC3)n2)C1 [I-414] | 10 to 100 |
| C[C@@H](OCc1ccccc1)[C@H](NC(=O)[C@@H]1CN(C(=O)c2cncs2)CC12CN(C(=O)[C@H]1CC1(C)C)C2)C(=O)N(C)C [I-416] | 10 to 100 |
| Cc1ccc(CNC(=O)[C@@H]2CN(C(=O)c3cnn(Cc4ccccn4)c3)CC23CN(C(=O)[C@H]2CC2(C)C)C3)nn1 [I-417] | > 10000 |
| Cc1ccc(CNC(=O)[C@@H]2CN(C(=O)c3cnn(Cc4ccncc4)c3)CC23CN(C(=O)[C@H]2CC2(C)C)C3)nn1 [I-418] | > 10000 |
| CC1(C)C[C@@H]1C(=O)N1CC2(CN(C(=O)c3cncs3)C[C@H]2C(=O)NC(CO)c2cccc(C3CCC(F)(F)CC3)n2)C1 (stereo partly drawn) [I-419] | 100 to 1000 |
| CNC(=O)C(NC(=O)[C@@H]1CN(C(=O)c2cncs2)CC12CN(C(=O)[C@H]1CC1(C)C)C2)c1ccc(C)nn1 (stereo partly drawn) [I-420] | > 10000 |
| CNC(=O)C(NC(=O)[C@@H]1CN(C(=O)c2cnn(Cc3ccccc3)c2)CC12CN(C(=O)[C@H]1CC1(C)C)C2)c1ccc(C)nn1 (stereo partly drawn) [I-421] | 1000 to 10000 |
| CNC(=O)C(NC(=O)[C@@H]1CN(C(=O)c2cncs2)CC12CN(C(=O)[C@H]1CC1(C)C)C2)c1cccc(N2CCOCC2)n1 (stereo partly drawn) [I-422] | 1000 to 10000 |
| CC(C)(O)C(NC(=O)[C@@H]1CN(C(=O)c2cncs2)CC12CN(C(=O)[C@H]1CC1(C)C)C2)c1cccc(C2CCOCC2)n1 (stereo partly drawn) [I-423] | 1000 to 10000 |
| CNC(=O)[C@@H](NC(=O)[C@@H]1CN(C(=O)c2cnn(Cc3ccccc3)c2)CC12CN(C(=O)[C@H]1CC1(C)C)C2)[C@@H](C)OC[C@H]1CC[C@@H](O)CC1 [I-424] | 10 to 100 |
| CNC(=O)C(NC(=O)[C@@H]1CN(C(=O)c2cncs2)CC12CN(C(=O)[C@H]1CC1(C)C)C2)c1nc(C2CCCCC2)co1 (stereo partly drawn) [I-425] | 100 to 1000 |
| CNC(=O)C(NC(=O)[C@@H]1CN(C(=O)c2cncs2)CC12CN(C(=O)[C@H]1CC1(C)C)C2)c1ncc(C2CCCCC2)o1 (stereo partly drawn) [I-426] | 100 to 1000 |
| CNC(=O)C(NC(=O)[C@@H]1CN(C(=O)c2cncs2)CC12CN(C(=O)[C@H]1CC1(C)C)C2)c1cccc(N2CC3(COC3)C2)n1 (stereo partly drawn) [I-427] | 1000 to 10000 |
| C[C@@H](OCC1CCOCC1)[C@@H](COC(F)(F)F)NC(=O)[C@@H]1CN(C(=O)c2cncs2)CC12CN(C(=O)[C@H]1CC1(C)C)C2 [I-428] | 100 to 1000 |
| CNC(=O)C(NC(=O)[C@@H]1CN(C(=O)c2cncs2)CC12CN(C(=O)[C@H]1CC1(C)C)C2)c1cccc(N2CC3(CC(C(F)(F)F)C3)C2)n1 (stereo partly drawn) [I-430] | 100 to 1000 |
| COC[C@H]1CCCN(C(=O)[C@@H](NC(=O)[C@@H]2CN(C(=O)c3cncs3)CC23CN(C(=O)C(C)(C)C2CC2)C3)[C@@H](C)OC[C@H]2CC[C@H](O)CC2)C1 [I-431] | 100 to 1000 |
| CNC(=O)C(NC(=O)[C@@H]1CN(C(=O)c2cncs2)CC12CN(C(=O)[C@H]1CC1(C)C)C2)c1cccc(N2CCCCC2)n1 (stereo partly drawn) [I-432] | 100 to 1000 |
| COC[C@H]1CCCN(C(=O)[C@@H](NC(=O)[C@@H]2CN(C(=O)c3cncs3)CC23CN(C(=O)[C@H]2CC2(C)C)C3)[C@@H](C)OC[C@H]2CC[C@H](N)CC2)C1 [I-433] | 1000 to 10000 |
| COC[C@H]1CCCN(C(=O)[C@@H](NC(=O)[C@@H]2CN(C(=O)c3cncs3)CC23CN(C(=O)[C@H]2CC2(C)C)C3)[C@@H](C)OC[C@H]2CC[C@H](NC(C)=O)CC2)C1 [I-434] | 100 to 1000 |
| COC[C@H]1CCCN(C(=O)[C@@H](NC(=O)[C@@H]2CN(C(=O)c3cncs3)CC23CN(C(=O)[C@H]2CC2(C)C)C3)[C@@H](C)OC[C@H]2CC[C@H](OC(F)(F)F)CC2)C1 [I-435] | ≤ 10 |
| CC(C)(O)C(NC(=O)[C@@H]1CN(C(=O)c2cnco2)CC12CN(C(=O)[C@H]1CC1(C)C)C2)c1cccc(C2CCOCC2)n1 (stereo partly drawn) [I-436] | > 10000 |
| Cc1nc(C)c(C(=O)N2C[C@@H](C(=O)NC(c3cccc(C4CCOCC4)n3)C(C)(C)O)C3(C2)CN(C(=O)[C@H]2CC2(C)C)C3)s1 (stereo partly drawn) [I-437] | > 10000 |
| C[C@@H](OCC1CCCCC1)[C@H](NC(=O)[C@@H]1CN(C(=O)c2cnn(Cc3ccccc3)c2)CC12CN(C(=O)[C@H]1CC1(C)C)C2)C(=O)N1CCC(c2cnc[nH]2)CC1 [I-438] | ≤ 10 |
| C[C@@H](OCC1CCCCC1)[C@H](NC(=O)[C@@H]1CN(C(=O)c2cnn(Cc3ccccc3)c2)CC12CN(C(=O)[C@H]1CC1(C)C)C2)C(=O)N1CCC(n2cccn2)CC1 [I-439] | ≤ 10 |
| C[C@@H](OCC1CCOCC1)[C@H](NC(=O)[C@@H]1CN(C(=O)c2cncs2)CC12CN(C(=O)[C@H]1CC1(C)C)C2)C(=O)N1CCC(n2ccnc2)CC1 [I-440] | 10 to 100 |
